Measured values reported in patent US6380134B1, “N-pyridyl herbicide compounds” (Syngenta Crop Protection, Inc., priority 1998, dated 2002).
Several values for one entry are separate records, joined by “and”; a condition that tells them apart may be missing. Equal entries are not always repeated.

What was measured:
Stellaria [1] = assay: Herbicidal action before plant emergence (pre-emergence action); assay type: in vivo; design: key: 1=complete damage; 9=no effect; Score figures of 1 to 4 (in particular 1 to 3) signify a good to very good herbicidal action; details: 2000 g a.i./ha sprayed immediately after sowing; evaluated after 3 weeks; nine-level key (1=complete damage, 9=no effect)
From the text: (§1) Monocotyledonous and dicotyledonous test plants are sown in standard soil in plastic pots. Immediately after sowing, the test substances are sprayed on as aqueous suspensions (prepared from a 25% strength wettable powder (Example F3, b) in accordance with WO 97/34485) or as emulsions (prepared from a 25% strength emulsion concentrate (Example F1, c) in accordance with WO 97/34485), corresponding to a dosage of 2 kg of a.i./ha (500 l of water/ha). The test plants are subsequently grown in the greenhouse under optimal conditions. After a test period of 3 weeks, the experiment is evaluated using a nine-level key (1=complete damage, 9=no effect). Score figures of 1 to 4 (in particular 1 to 3) signify a good to very good herbicidal action.
(§2) Test plants: Lolium, Setaria, Sinapis, Solanum, Stellaria, Ipomea.

Solanum [2] = assay: as above; assay type: in vivo; design: key: 1=complete damage; 9=no effect; Score figures of 1 to 4 (in particular 1 to 3) signify a good to very good herbicidal action; details: 2000 g a.i./ha sprayed immediately after sowing; evaluated after 3 weeks; nine-level key (1=complete damage, 9=no effect)
From the text: as §1, §2

Ipomoea [3] = assay: as above; assay type: in vivo; design: key: 1=complete damage; 9=no effect; Score figures of 1 to 4 (in particular 1 to 3) signify a good to very good herbicidal action; details: 2000 g a.i./ha sprayed immediately after sowing; evaluated after 3 weeks; nine-level key (1=complete damage, 9=no effect)
From the text: as §1, §2

Setaria [4] = assay: as above; assay type: in vivo; design: key: 1=complete damage; 9=no effect; Score figures of 1 to 4 (in particular 1 to 3) signify a good to very good herbicidal action; details: 2000 g a.i./ha sprayed immediately after sowing; evaluated after 3 weeks; nine-level key (1=complete damage, 9=no effect)
From the text: as §1, §2

Sinapis [5] = assay: as above; assay type: in vivo; design: key: 1=complete damage; 9=no effect; Score figures of 1 to 4 (in particular 1 to 3) signify a good to very good herbicidal action; details: 2000 g a.i./ha sprayed immediately after sowing; evaluated after 3 weeks; nine-level key (1=complete damage, 9=no effect)
From the text: as §1, §2

Lolium [6] = assay: as above; assay type: in vivo; design: key: 1=complete damage; 9=no effect; Score figures of 1 to 4 (in particular 1 to 3) signify a good to very good herbicidal action; details: 2000 g a.i./ha sprayed immediately after sowing; evaluated after 3 weeks; nine-level key (1=complete damage, 9=no effect)
From the text: as §1, §2

Stellaria [7] = assay: Post-emergence herbicidal action; assay type: in vivo; design: key: 1=complete damage; 9=no effect; Score figures of 1 to 4 (in particular 1 to 3) signify a good to very good herbicidal action; details: dose 2000 g a.i./ha; sprayed at 4- to 6-leaf stage; evaluated after approximately 18 days; nine-level key (1=complete damage, 9=no effect)
Protocol: (§3) Monocotyledonous and dicotyledonous test plants are grown in the greenhouse in plastic pots containing standard soil and, in the 4- to 6-leaf stage, sprayed with an aqueous suspension of the test substances of the formula I, prepared from a 25% strength wettable powder (Example F3, b) in accordance with WO 97/34485) or with an emulsion of the test substances of the formula I, prepared from a 25% strength emulsion concentrate (Example F1, c) in accordance with WO 97/34485), corresponding to a dosage of 2 kg/ a.i./ha (500 l of water/ha). The test plants are subsequently grown on in the greenhouse under optimal conditions. After a test period of approximately 18 days, the experiment is evaluated using a nine-level key (1=complete damage, 9=no effect). Score figures of 1 to 4 (in particular 1 to 3) signify a good to very good herbicidal action.
as §2

Solanum [8] = assay: Post-emergence herbicidal action; assay type: in vivo; design: key: 1=complete damage; 9=no effect; Score figures of 1 to 4 (in particular 1 to 3) signify a good to very good herbicidal action; details: dose 2000 g a.i./ha; sprayed at 4- to 6-leaf stage; evaluated after approximately 18 days; nine-level key (1=complete damage, 9=no effect)
Protocol: as §3, §2

Ipomoea [9] = assay: Post-emergence herbicidal action; assay type: in vivo; design: key: 1=complete damage; 9=no effect; Score figures of 1 to 4 (in particular 1 to 3) signify a good to very good herbicidal action; details: dose 2000 g a.i./ha; sprayed at 4- to 6-leaf stage; evaluated after approximately 18 days; nine-level key (1=complete damage, 9=no effect)
Protocol: as §3, §2

Setaria [10] = assay: Post-emergence herbicidal action; assay type: in vivo; design: key: 1=complete damage; 9=no effect; Score figures of 1 to 4 (in particular 1 to 3) signify a good to very good herbicidal action; details: dose 2000 g a.i./ha; sprayed at 4- to 6-leaf stage; evaluated after approximately 18 days; nine-level key (1=complete damage, 9=no effect)
Protocol: as §3, §2

Sinapis [11] = assay: Post-emergence herbicidal action; assay type: in vivo; design: key: 1=complete damage; 9=no effect; Score figures of 1 to 4 (in particular 1 to 3) signify a good to very good herbicidal action; details: dose 2000 g a.i./ha; sprayed at 4- to 6-leaf stage; evaluated after approximately 18 days; nine-level key (1=complete damage, 9=no effect)
Protocol: as §3, §2

Lolium [12] = assay: Post-emergence herbicidal action; assay type: in vivo; design: key: 1=complete damage; 9=no effect; Score figures of 1 to 4 (in particular 1 to 3) signify a good to very good herbicidal action; details: dose 2000 g a.i./ha; sprayed at 4- to 6-leaf stage; evaluated after approximately 18 days; nine-level key (1=complete damage, 9=no effect)
Protocol: as §3, §2

SMILES | melting point | Pre-emergence action, score, test plant Stellaria (Stellaria [1]) | Pre-emergence action, score, test plant Solanum (Solanum [2]) | Pre-emergence action, score, test plant Ipomoea (Ipomoea [3]) | Pre-emergence action, score, test plant Setaria (Setaria [4]) | Pre-emergence action, score, test plant Sinapis (Sinapis [5]) | Pre-emergence action, score, test plant Lolium (Lolium [6]) | Post-emergence action, score, Stellaria (Stellaria [7]) | Post-emergence action, score, Solanum (Solanum [8]) | Post-emergence action, score, Ipomoea (Ipomoea [9]) | Post-emergence action, score, Setaria (Setaria [10]) | Post-emergence action, score, Sinapis (Sinapis [11]) | Post-emergence action, score, Lolium (Lolium [12])
CCCOc1nc(-n2c(=O)cc(C(F)(F)F)n(C)c2=O)c(F)cc1Cl [1.367] | – | 1 | 1 | 1 | 1 | 1 | 1 | 1 | 1 | 1 | 1 | 1 | 1
Cn1c(C(F)(F)F)cc(=O)n(-c2nc(Cl)c(Cl)cc2F)c1=O [1.396] | – | 1 | 1 | 1 | 1 | 1 | 1 | 3 | 1 | 1 | 3 | 1 | 3
C=CCOC(=O)C(C)(C)Oc1nc(-n2c(=O)cc(C(F)(F)F)n(C)c2=O)c(F)cc1Cl [1.402] | – | 1 | 1 | 4 | 1 | 1 | 1 | 1 | 1 | 1 | 1 | 1 | 1

Further lines, with some results ahead:

melting point | SMILES | Pre-emergence action, score, test plant Stellaria (Stellaria [1]) | Pre-emergence action, score, test plant Solanum (Solanum [2]) | Pre-emergence action, score, test plant Ipomoea (Ipomoea [3]) | Pre-emergence action, score, test plant Setaria (Setaria [4]) | Pre-emergence action, score, test plant Sinapis (Sinapis [5]) | Pre-emergence action, score, test plant Lolium (Lolium [6]) | Post-emergence action, score, Stellaria (Stellaria [7]) | Post-emergence action, score, Solanum (Solanum [8]) | Post-emergence action, score, Ipomoea (Ipomoea [9]) | Post-emergence action, score, Setaria (Setaria [10]) | Post-emergence action, score, Sinapis (Sinapis [11]) | Post-emergence action, score, Lolium (Lolium [12])
200 to 202 °C | Cn1c(C(F)(F)F)cc(=O)n(-c2nc(O)c(Cl)cc2F)c1=O [1.002, 1-(2-hydroxy-3-chloro-5-fluoropyridine-6-yl)-3-methyl-4-trifluoromethylpyrimidine-2,6-dione] | 5 | 1 | 1 | 1 | 1 | 7 | 5 | 1 | 1 | 5 | 2 | 6
121 to 122 °C and 119 to 121 °C | C#CCOc1nc(-n2c(=O)cc(C(F)(F)F)n(C)c2=O)c(F)cc1Cl [1.022, 1-(2-propargyloxy-3-chloro-5-fluoropyridine-6-yl)-3-methyl-4-trifluoromethylpyrimidine-2,6-dione] | 1 | 1 | 1 | 1 | 1 | 1 | 1 | 1 | 1 | 1 | 1 | 1
192 to 193 °C | N#Cc1cc(F)c(N2C(=O)C3CCCCN3C2=O)nc1Cl (stereo not drawn) [Example H8, 2-(3-fluoro-6-chloro-5-cyano-2-pyridyl)tetrahydroimidazo[1,5-a]pyridine-1,3-dione] | – | – | – | – | – | – | – | – | – | – | – | –
